Measured values as given in article PMC3711802 (IUBMB life, 2012).
Where two headings read alike, the source gives them in different places. Values belong to the substance of their own block, whether it stands above or below them.

Key:
EGFR [1] = conditions: cited from earlier work
EGFR [2] = conditions: ref [8] Li et al., cited from earlier work
EGFR [3] = biological target: EGFR (Homo sapiens, UniProt P00533); test: Displacement of bound [^125I]-EGF in A431 cells; assay type: binding
[4] = tested on: A431 subcutaneous xenografts; test: Treatment of subcutaneous A431 xenografts in nude mice; assay type: in vivo, human; conditions: EGFR over-expressing cancers
EGFR expressing cells = conditions: in vitro and in vivo, cited from earlier work

Substance: EGF: Recombinant human EGF (hEGF, Peprotech Asia)
EGFR activation upon binding (EGFR [1]; ref [20]): activates the kinase moiety of the receptor

Substance: YHWYGYTPQNVI [GE11]
affinity to the EGFR (in words) (EGFR [2]; as a free ligand): high affinity | affinity to the EGFR (EGFR [2]; free ligand): ~ 22 nM | EGFR activation (EGFR [1]; as previously shown by us, ref [9],[10]): does not activate the receptor | EGFR activation (EGFR [1]; ref [8]): does not activate the EGFR | EGFR activation (EGFR [1]; ref [9],[10]): without EGFR activation

Substance: Polyethyleneimine-polyetheleneglycol-GE11 [PPGE11]
EGFR-binding affinity/inhibitory potency compared to GE11 (EGFR [3]; vs free GE11): much more potent EGFR binder as compared to GE11 | in vitro and in vivo efficacy of both vectors in PolyIC treatment [4]: in vitro and in vivo efficacies of both vectors are comparable | gene delivery into EGFR expressing cells (EGFR expressing cells; ref [9],[10],[16]): effective and specific gene delivery into EGFR expressing cells | targeting of EGFR over-expressing tumors (EGFR expressing cells; ref [9],[10]): enabled the targeting of EGFR over-expressing tumors in vitro and in vivo

enhancement of potency by complexation with PolyIC (EGFR [3]; [^125I]-EGF displacement, PolyIC complex vs uncomplexed conjugate): approximately 10 fold
Substance: Polyethyleneimine-polyetheleneglycol-EGF [PP-EGF]
in vitro and in vivo efficacy of both vectors in PolyIC treatment [4]: in vitro and in vivo efficacies of both vectors are comparable
